Experimental data taken from article PMC8291583, “Design, synthesis, and evaluation of 3,7-substituted coumarin derivatives as multifunctional Alzheimer’s disease agents” (Journal of Enzyme Inhibition and Medicinal Chemistry, 2021).
Like-named read-outs stand apart in the source and are kept apart here.

Experiments:
BuChE from equine serum = target: T1, BuChE from equine serum (Equus caballus, UniProt P81908); assay: biochemical
T1 construct: 12 U/ml BuChE from equine serum; from tissue; host or cells: equine serum
T1 sequence (P81908 whole entry): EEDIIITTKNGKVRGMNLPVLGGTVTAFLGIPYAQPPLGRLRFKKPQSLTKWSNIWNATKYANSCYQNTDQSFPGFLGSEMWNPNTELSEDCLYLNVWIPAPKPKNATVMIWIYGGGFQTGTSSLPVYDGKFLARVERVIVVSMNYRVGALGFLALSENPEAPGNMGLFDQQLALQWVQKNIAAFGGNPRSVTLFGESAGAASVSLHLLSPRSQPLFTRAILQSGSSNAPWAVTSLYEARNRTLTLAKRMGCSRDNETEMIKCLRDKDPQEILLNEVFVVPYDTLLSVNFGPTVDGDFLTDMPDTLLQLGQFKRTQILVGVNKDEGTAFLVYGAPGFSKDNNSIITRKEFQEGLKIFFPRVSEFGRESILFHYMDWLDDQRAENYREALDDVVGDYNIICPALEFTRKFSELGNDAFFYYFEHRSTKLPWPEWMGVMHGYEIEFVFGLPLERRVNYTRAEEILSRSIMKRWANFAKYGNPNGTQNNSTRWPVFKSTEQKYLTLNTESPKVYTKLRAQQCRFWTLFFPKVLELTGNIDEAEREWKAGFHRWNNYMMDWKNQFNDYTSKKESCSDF
Protocol: (§1) Cholinesterase activity is determined using a modified colorimetric method first described by Ellman[40]. […] The stock was then further diluted by factors of ten to produce solutions of 1 mM, 100 µM, 10 µM, 1 µM, and 0.1 µM which corresponds to concentrations of 100 µM, 10 µM, 1 µM, 0.1 µM, and 0.01 µM in the final reaction mixture. The test concentrations were stored in the refrigerator until the day of the assay. Trisma HCl buffer (50 mM, adjusted to pH 8 with 2 N NaOH) was prepared as the buffer and used to prepare enzyme stock solution (22 U/ml for Electrophorus electricus AChE and 12 U/ml BuChE from equine serum), 15 mM acetylthiocholine iodide, 15 mM S-butyrylthiocholine iodide and 1.5 mM DTNB (Ellman’s reagent). The enzyme stock solution was stabilised with 1% bovine serum albumin and stored in aliquots at −80 °C. A clear, flat bottom 96 well plate was used to perform the experiments with each concentration performed in triplicate. Prior to the assay the background absorbance for each compound at the different test concentrations was measured and accounted for when reading the final absorbance. […] Following this, 30 µl of the substrate was added to each well simultaneously using a multi pipette. […] A one-sample t-test was performed on the data to test for statistical significance.

[1] = target: Electrophorus electricus AChE (Electrophorus electricus, UniProt O42275); assay: biochemical
Electrophorus electricus AChE, sequence (O42275 24-633): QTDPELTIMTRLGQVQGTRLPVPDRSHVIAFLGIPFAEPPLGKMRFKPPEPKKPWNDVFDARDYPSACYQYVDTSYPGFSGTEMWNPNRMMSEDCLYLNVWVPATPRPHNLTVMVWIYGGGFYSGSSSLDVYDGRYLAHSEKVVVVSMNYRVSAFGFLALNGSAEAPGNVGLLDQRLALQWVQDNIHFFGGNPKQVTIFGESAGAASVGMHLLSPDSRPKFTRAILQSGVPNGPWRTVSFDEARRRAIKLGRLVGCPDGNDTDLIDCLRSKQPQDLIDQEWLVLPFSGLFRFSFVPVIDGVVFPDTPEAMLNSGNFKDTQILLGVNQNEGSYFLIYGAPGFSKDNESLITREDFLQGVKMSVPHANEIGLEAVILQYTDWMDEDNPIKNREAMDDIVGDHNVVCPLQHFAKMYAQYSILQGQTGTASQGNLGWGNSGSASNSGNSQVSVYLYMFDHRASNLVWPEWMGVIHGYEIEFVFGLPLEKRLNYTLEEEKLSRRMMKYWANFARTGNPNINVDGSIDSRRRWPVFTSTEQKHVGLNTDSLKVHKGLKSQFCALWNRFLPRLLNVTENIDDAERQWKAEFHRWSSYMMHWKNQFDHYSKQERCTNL
Protocol: as §1

recombinant human MAO-B = recombinant human MAO-B (Homo sapiens, UniProt P27338); assay: MAO-B fluorometric assay (kynuramine); assay type: biochemical
recombinant human MAO-B, sequence (P27338 whole entry): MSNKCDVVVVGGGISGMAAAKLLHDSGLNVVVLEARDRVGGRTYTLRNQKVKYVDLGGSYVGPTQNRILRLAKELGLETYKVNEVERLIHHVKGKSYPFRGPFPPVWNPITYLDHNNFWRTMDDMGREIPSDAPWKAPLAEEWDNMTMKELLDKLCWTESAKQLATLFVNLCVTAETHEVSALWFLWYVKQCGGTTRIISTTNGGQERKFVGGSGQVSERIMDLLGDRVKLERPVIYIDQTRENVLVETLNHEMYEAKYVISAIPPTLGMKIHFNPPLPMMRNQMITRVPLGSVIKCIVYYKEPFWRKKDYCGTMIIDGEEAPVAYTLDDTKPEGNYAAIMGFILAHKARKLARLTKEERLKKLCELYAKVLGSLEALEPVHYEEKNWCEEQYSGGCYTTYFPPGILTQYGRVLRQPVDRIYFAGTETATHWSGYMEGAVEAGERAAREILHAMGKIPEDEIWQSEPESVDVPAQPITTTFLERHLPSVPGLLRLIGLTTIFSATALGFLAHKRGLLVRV
Protocol: . The stock was then further diluted by factors of ten to produce solutions of 1 mM, 100 µM, 10 µM, 1 µM, and 0.1 µM which would correspond to concentrations of 100 µM, 10 µM, 1 µM, 0.1 µM, and 0.01 µM in the final reaction mixture. A potassium phosphate buffer ([…] 100 mM, pH 7.4, 0.9% w/v NaCl) was prepared and refrigerated until further use. The enzyme stock solutions were prepared by dissolving 2.5 mg of enzyme in 33.33 ml of phosphate buffer to produce stock solutions of 0.075 mg/ml which were stored in aliquots at −80 °C until use. […]. The substrate was prepared by dissolving kynuramine in potassium buffer and was prepared as two separate concentrations; […]. The fresh substrate was prepared on the day of the assay. The assay was carried out in 2 ml Eppendorf vials. […] Following this, 25 µl of the enzyme stock were added to each vial in 10 s intervals and the vials were incubated at 37 °C for 10 min. After this time period 15 µl of kynuramine (750 µM for MAO-A and 500 µM for MAO-B) was added at 10 s intervals and further incubated for 20 min. To stop the reaction at the end of this time 150 hx00B5;l of 2 N NaOH was added and the mixture was shaken. Using a micropipette 80 hx00B5;l of the mixture was transferred to a well in a black 96 well plate. The plate was placed in the fluorescent plate reader and read at an excitation/emission wavelength of 310 nm/410 nm. Each assay was run in triplicate and the data were analysed with Graph Pad Prism 8 software (San Diego, USA).
The MAO inhibitory activity of the compounds was assessed using a fluorometric assay with recombinant human MAO-A and human MAO-B enzymes. […].

recombinant human MAO-A = target: T2, recombinant human MAO-A (Homo sapiens, UniProt P21397); assay: biochemical
T2 sequence (P21397 1-527): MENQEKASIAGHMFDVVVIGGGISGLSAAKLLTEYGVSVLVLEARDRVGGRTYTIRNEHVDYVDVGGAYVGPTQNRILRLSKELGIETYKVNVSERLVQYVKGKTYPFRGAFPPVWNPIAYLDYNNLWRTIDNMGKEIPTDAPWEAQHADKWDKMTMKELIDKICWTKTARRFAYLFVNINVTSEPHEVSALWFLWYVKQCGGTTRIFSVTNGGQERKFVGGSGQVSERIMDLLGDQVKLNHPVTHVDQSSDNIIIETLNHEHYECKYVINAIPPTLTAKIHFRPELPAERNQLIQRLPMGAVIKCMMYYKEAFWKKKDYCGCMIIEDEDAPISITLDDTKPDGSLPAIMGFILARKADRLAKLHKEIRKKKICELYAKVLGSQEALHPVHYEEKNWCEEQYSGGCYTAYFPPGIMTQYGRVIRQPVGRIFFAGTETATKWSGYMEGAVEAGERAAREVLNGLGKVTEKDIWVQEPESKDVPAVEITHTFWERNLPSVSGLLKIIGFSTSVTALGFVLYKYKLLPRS
Protocol: The stock was then further diluted by factors of ten to produce solutions of 1 mM, 100 µM, 10 µM, 1 µM, and 0.1 µM which would correspond to concentrations of 100 µM, 10 µM, 1 µM, 0.1 µM, and 0.01 µM in the final reaction mixture. A potassium phosphate buffer ([…] 100 mM, pH 7.4, 0.9% w/v NaCl) was prepared and refrigerated until further use. The enzyme stock solutions were prepared by dissolving 2.5 mg of enzyme in 33.33 ml of phosphate buffer to produce stock solutions of 0.075 mg/ml which were stored in aliquots at −80 °C until use. Once in the final reaction mixture, this enzyme solution will have a concentration of 0.0075 mg/ml. […] The fresh substrate was prepared on the day of the assay. The assay was carried out in 2 ml Eppendorf vials. […] Following this, 25 µl of the enzyme stock were added to each vial in 10 s intervals and the vials were incubated at 37 °C for 10 min. […] To stop the reaction at the end of this time 150 hx00B5;l of 2 N NaOH was added and the mixture was shaken. Using a micropipette 80 hx00B5;l of the mixture was transferred to a well in a black 96 well plate. The plate was placed in the fluorescent plate reader and read at an excitation/emission wavelength of 310 nm/410 nm. Each assay was run in triplicate and the data were analysed with Graph Pad Prism 8 software (San Diego, USA).
The MAO inhibitory activity of the compounds was assessed using a fluorometric assay with recombinant human MAO-A and human MAO-B enzymes.

[2] = system: MPP+-compromised SH-SY5Y neuroblastoma cells; assay type: cell-based, human
Protocol: SH-SY5Y cells were seeded onto a 96-well plate in a growth medium at a density of 10,000 cells/well. Cells were pre-treated with test compounds at a concentration of 10 µM and thereafter 2000 µM MPP^+ following a 2-h incubation period. Afterwards, cells were incubated for 24 h and MTT colorimetric assay was used to measure cell viability relative to untreated control. To determine the data’s statistical significance, the One-way ANOVA Turkey’s multiple comparison test was conducted on all experimental replicates using GraphPad Prism® 8 (San Diego, USA).
The SH-SY5Y cells were pre-treated with 10 µM of the test compounds for 2 h followed by the addition of 2000 µM of MPP^+.

[3] = Ellman method, 25 °C, pH 8, read-out: BuChE IC50
[4] = Ellman method, 25 °C, pH 8, read-out: AChE IC50
[5] = kynuramine 30 µM, 37 °C, read-out: MAO-B IC50
[6] = kynuramine 45 µM, 37 °C, read-out: MAO-A IC50
[7] = 10 µM compound, 2 h pre-treatment, 2000 µM MPP+, 24 h, SH-SY5Y

Compound | IC50 (BuChE from equine serum; [3]) | IC50 [1, 4] | SI MAO-B (MAO-B selectivity index = IC50(MAO-A)/IC50(MAO-B)) (recombinant human MAO-B) | IC50 (recombinant human MAO-B; [5]) | IC50 (recombinant human MAO-A; [6]) | MPP+ neuroprotection (difference in percentage cell viability vs MPP+ only treated cells) [2, 7] | IC50 (BuChE from equine serum) | IC50 ([1]; AChE IC50) | IC50 (recombinant human MAO-B) | IC50 (recombinant human MAO-A; MAO-A IC50) | MPP+ neuroprotection (difference in percentage cell viability vs MPP+ only treated cells) [2]
Cc1cc2ccc(OCCc3ccccc3)cc2oc1=O [Compound 2, 3-methyl-7-(2-phenylethoxy)-2H-1-benzopyran-2-one] | > 100 µM | > 100 µM | 47.7 | 0.014 µM | 0.658 µM | 24.85% | – | – | – | – | –
CCN(CC)C(=O)Oc1ccc2cc(C)c(=O)oc2c1 [Compound 3, 3-methyl-2-oxo-2H-1-benzopyran-7-yl-diethylcarbamate] | > 100 µM | > 100 µM | 5.67 | 0.498 µM | 2.82 µM | 15.59% | – | – | – | – | –
Cc1cc2ccc(O)cc2oc1=O [Compound 1, 7-hydroxy-3-methyl-2H-1-benzopyran-2-one] | – | – | 2.04 | – | – | – | 20.2 µM | > 100 µM | 16.4 µM | 33.4 µM | 26.24%
